Values quoted from earlier work, collected in US20250195564A1, “IRON SUPPLEMENT COMPOSITIONS AND METHODS OF USE THEREOF” (ThermoLife International, LLC, priority 2021, published 2025).

Settings: iron supplementation; without supplementation mean 36±11 days

Structure (SMILES): O=S(=O)([O-])[O-].[Fe+2] [iron sulfate]
- time of hemoglobin recovery after blood donation: 32 days
